Reference: ChEMBL document CHEMBL1149715, “Inhibition of the Mycobacterium tuberculosis enoyl acyl carrier protein reductase InhA by arylamides” (Bioorg Med Chem, 2007)
Converted amounts (≈) assume the structure as drawn.

biological target: T1, Enoyl-[acyl-carrier-protein] reductase [NADH] (Mycobacterium tuberculosis, UniProt P9WGR1)
T1 sequence (P9WGR1 whole entry): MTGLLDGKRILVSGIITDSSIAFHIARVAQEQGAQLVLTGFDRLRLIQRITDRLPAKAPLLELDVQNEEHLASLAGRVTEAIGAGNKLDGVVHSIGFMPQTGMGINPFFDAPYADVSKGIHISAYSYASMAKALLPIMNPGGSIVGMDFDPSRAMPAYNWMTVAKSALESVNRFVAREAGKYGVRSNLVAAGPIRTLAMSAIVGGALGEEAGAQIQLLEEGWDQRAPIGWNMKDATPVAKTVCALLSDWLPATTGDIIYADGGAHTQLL
Description: Inhibition of Mycobacterium tuberculosis InhA

First: Cc1ccc(C(=O)N2CCN(c3ccccc3)CC2)cc1
Second: Cc1ccc(C(=O)N2CCN(c3cccc(Cl)c3)CC2)cc1
The IC50 of the first is 5.4-fold higher: 16.6 µM for the first, 3.07 µM for the second. The second is the more potent here.

Cc1cccc(C(=O)N2CCN(c3cccc(Cl)c3)CC2)c1 and O=C(c1cccc(Cl)c1)N1CCN(c2cccc(Cl)c2)CC1 are within 1.5-fold of each other in IC50: 9.43 µM for the first, 6.73 µM for the second.

Compared with Cc1ccc(C(=O)N2CCN(c3cccc(Cl)c3)CC2)cc1C, Cc1ccc(C(=O)N2CCN(c3cccc(C(F)(F)F)c3)CC2)cc1C is 1.9-fold higher in IC50: 0.99 µM for the first, 1.85 µM for the second.

First: O=C(c1ccc(F)cc1)N1CCN(c2cccc(Cl)c2)CC1
Second: CC(C)c1ccc(C(=O)N2CCN(c3cccc(Cl)c3)CC2)cc1
The IC50 of the first is lower: 9.74 µM for the first, > 100 µM for the second.

CC(C)(C)c1ccc(C(=O)N2CCN(c3cccc(Cl)c3)CC2)cc1 and Cc1ccc(N2CCN(C(=O)c3ccc(C(C)(C)C)cc3)CC2)cc1Cl cannot be ordered by IC50: > 100 µM for the first, > 100 µM for the second.

Going from CC(C)(C)c1ccc(C(=O)N2CCN(c3cccc(C(F)(F)F)c3)CC2)cc1 to Cc1ccc(C(=O)N2CCN(c3cccc(C(F)(F)F)c3)CC2)cc1, the IC50 falls from > 100 µM to 6.26 µM.

Compared with O=C(c1ccc(Cl)c(Cl)c1)N1CCN(c2ccccc2)CC1, O=C(c1ccc(Cl)c(Cl)c1)N1CCN(c2cccc(Cl)c2)CC1 is 2.9-fold lower in IC50: 17.6 µM for the first, 6.05 µM for the second. The second is the more potent here.

O=C(c1ccccc1)N1CCN(Cc2ccccc2)CC1 and O=C(c1ccccc1)N1CCN(c2ccccc2)CC1 are within 1.5-fold of each other in IC50: 31.5 µM for the first, 38.9 µM for the second.

O=C(c1cccc(Cl)c1)N1CCC(Cc2ccccc2)CC1 and Cc1cccc(C(=O)N2CCC(Cc3ccccc3)CC2)c1 are within 1.5-fold of each other in IC50: 7.74 µM for the first, 7.39 µM for the second.

Compared with Cc1ccc(C(=O)N2CCC(Cc3ccccc3)CC2)cc1, O=C(c1ccccc1F)N1CCC(Cc2ccccc2)CC1 is 2.7-fold higher in IC50: 5.16 µM for the first, 14.1 µM for the second. The first is the more potent here.

Going from O=C(c1ccccc1)N1CCN(C2c3ccccc3-c3ccccc32)CC1 to Cc1ccc(C(=O)N2CCN(C3c4ccccc4-c4ccccc43)CC2)cc1, the IC50 rises from 0.09 µM to 0.4 µM (4.4-fold).

First: O=C(c1ccc2[nH]ccc2c1)N1CCN(C(c2ccc(F)cc2)c2ccc(F)cc2)CC1
Second: Cc1ccc(C(=O)N2CCN(C(c3ccc(F)cc3)c3ccc(F)cc3)CC2)cc1
The IC50 of the first is 1.8-fold lower: 1.04 µM for the first, 1.89 µM for the second.

Going from O=C(c1ccccc1)N1CCN(C(c2ccc(F)cc2)c2ccc(F)cc2)CC1 to O=C(c1ccccc1F)N1CCN(c2cccc(Cl)c2)CC1, the IC50 rises from 2.04 µM to 13.9 µM (6.8-fold). The first is the more potent here.

Cc1cccc(C(=O)N2CCN(c3ccc([N+](=O)[O-])cc3)CC2)c1 showed an IC50 of 15.5 µM.

test system: Mycobacterium tuberculosis; test: Antibacterial activity against Mycobacterium tuberculosis H37Rv by Alamar blue assay; format: functional

First: O=C(c1ccc2[nH]ccc2c1)N1CCN(C(c2ccc(F)cc2)c2ccc(F)cc2)CC1
Second: O=C(c1ccccc1)N1CCN(C(c2ccc(F)cc2)c2ccc(F)cc2)CC1
The MIC of the first is 2-fold lower: 62.5 µM (≈ 27 µg/mL) for the first, 125 µM (≈ 49.1 µg/mL) for the second.

Cc1cccc(C(=O)N2CCN(c3ccc([N+](=O)[O-])cc3)CC2)c1 showed an MIC of 125 µM (≈ 40.7 µg/mL).
